According to article PMC4681449 (Molecular microbiology, 2015):

Target: CjArsP (Campylobacter jejuni, UniProt B5LWZ8)
Format: biochemical

CjArsP, sequence (B5LWZ8 1-315): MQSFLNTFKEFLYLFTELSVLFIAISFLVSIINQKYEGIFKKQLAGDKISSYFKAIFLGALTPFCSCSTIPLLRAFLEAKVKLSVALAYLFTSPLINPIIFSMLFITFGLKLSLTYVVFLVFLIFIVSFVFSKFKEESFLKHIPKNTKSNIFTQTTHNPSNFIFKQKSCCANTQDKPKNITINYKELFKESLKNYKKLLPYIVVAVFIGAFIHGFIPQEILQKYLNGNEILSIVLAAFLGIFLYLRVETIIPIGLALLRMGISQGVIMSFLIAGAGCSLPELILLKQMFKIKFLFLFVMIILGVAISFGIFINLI

C[As](O)O [MAs(III), methylarsenite]
uptake into everted membrane vesicles, As by ICP-MS: Everted membrane vesicles from cells expressing CjarsP accumulated MAs(III) when NADH was supplied
